According to ChEMBL document CHEMBL5506010, “Butyrylcholinesterase-Activated Near-Infrared Fluorogenic Probe for In Vivo Theranostics of Alzheimer's Disease” (J Med Chem, 2024):
Calls of active or inactive are those of the source. The rule behind the calls is not given here.

Columns and labels:
Cholinesterase [1] = target: T1, Cholinesterase (Homo sapiens, UniProt P06276); test: Binding affinity to BChE (unknown origin) in PBS assessed as maximum initial reaction rate by fluorometric method
Acetylcholinesterase = Acetylcholinesterase (Homo sapiens, UniProt P22303); test: Binding affinity to AChE (unknown origin) by fluorescence analysis
[2] = Drug uptake in wildtype mouse brain assessed as increase in fluorescence at 100 uM, iv by fluorescence scanning analysis; format: ADME, organism-based; settings: in vivo
Cholinesterase [3] = target: T1, Cholinesterase; test: Binding affinity to BChE in human LN-229 cells at 10 uM incubated for 1 hrs by fluorescence based confocal laser scanning microscopic analysis; format: cell-based
Cholinesterase [4] = target: T1, Cholinesterase; test: Binding affinity to BChE (unknown origin) in PBS assessed as fold change in fluorescence intensity at 710 nm by fluorescence spectra analysis
SH-SY5Y [5] = test: Neuroprotective activity against amyloid-beta (1 to 42)-induced human SH-SY5Y cells assessed as decrease in amyloid beta (1 to 42) level in culture medium at 10 to 20 uM incubated for 24 hrs by ELISA; format: functional, cell-based; settings: dose 10-20 µM
Cholinesterase [6] = target: T1, Cholinesterase; test: Binding affinity to BChE (unknown origin) assessed as enzyme mediated compound hydrolysis measured after 1 min by HPLC analysis relative to control; parameters: scale not given: the % may be the effect or the level left
[7] = Neurotoxicity in mouse HT-22 cells assessed as reduction in cell viability at 50 uM; format: toxicity, cell-based; settings: ht-22, 50 µM
SH-SY5Y [8] = test: Neuroprotective activity against amyloid-beta (1 to 42)-induced human SH-SY5Y cells assessed as increase in ACh level in culture medium at 10 to 20 uM incubated for 24 hrs by ELISA; format: functional, cell-based; settings: dose 10-20 µM
PC-12 [9] = test: Binding affinity to BChE in rat PC-12 cells at 10 uM incubated for 1 hrs by fluorescence based confocal laser scanning microscopic analysis; format: cell-based
PC-12 [10] = test: Binding affinity to BChE in rat PC-12 cells assessed as increase in fluorescence intensity at 10 uM incubated for 24 hrs by fluorescence based confocal laser scanning microscopic analysis; format: cell-based
[11] = Drug uptake in brain of 7-month old APP/[…] transgenic AD-mouse model assessed as increase in fluorescence at 100 uM, iv measured after 1 hrs by fluorescence imaging analysis; format: ADME, organism-based; settings: in vivo
Mus musculus [12] = test: Antialzheimer activity in APP/PS1 transgenic AD mouse model assessed as improvement in memory administered intravenously once every 2 days for 10 times followed by morris water maze training from day 21 to 25 and measured on day 26 by Morris water maze test; format: functional, organism-based; settings: route iv, time 26.0 day
[13] = Stability of compound in male ICR mouse plasma at 100 uM, iv measured after 30 mins by fluorescence microplate reader; format: ADME, organism-based; settings: 0.5 h
PC-12 [14] = test: Binding affinity to BChE in rat PC-12 cells assessed as increase in fluorescence intensity preincubated with tacrine for 24 hrs followed by compound addition and measured after 1 hrs by fluorescence based confocal laser scanning microscopic analysis; format: cell-based
[15] = Drug uptake in brain of 6 weeks old AD-mouse model assessed as increase in fluorescence at 100 uM, iv preadministered with tacrine for 4 hrs followed by compound administration by fluorescence scanning analysis; format: ADME, organism-based; settings: in vivo
Homo sapiens [16] = species: Homo sapiens; test: Binding affinity to lysozyme (unknown origin) by fluorescence analysis
[17] = Toxicity in APP/PS1 transgenic AD mouse model assessed as heart damage administered intravenously once every 2 days for 10 times and measured on day 30 by H and E staining based analysis; format: tissue-based; settings: in vivo, iv, 720 h, time 30 day
Cholinesterase [18] = target: T1, Cholinesterase; test: Binding affinity to BChE in human SH-SY5Y cells at 10 uM incubated for 1 hrs by fluorescence based confocal laser scanning microscopic analysis; format: cell-based
Cholinesterase [19] = target: T1, Cholinesterase; test: Binding affinity to BChE (unknown origin) in PBS assessed as […] at 680 nm by UV/vis absorption analysis
Mus musculus [20] = test: Antialzheimer activity in APP/PS1 transgenic AD mouse model assessed as improvement in memory administered intravenously once every 2 days for 10 times and measured on day 26 by Y maze test; format: functional, organism-based; settings: route iv, time 26.0 day
[21] = Drug uptake in brain of 8 months old AD-mouse model assessed as increase in fluorescence at 100 uM, iv by fluorescence scanning analysis; format: ADME, organism-based; settings: in vivo
[22] = Stability of compound in PBS at pH 7.4 measured after 72 hrs by HPLC analysis; format: physicochemical; settings: buffer, pH 7.4, 72 h
[23] = Selectivity ratio of fluorescence intensity for binding affinity to AChE (unknown origin) in PBS to fluorescence intensity for binding affinity to BChE (unknown origin) in PBS
Homo sapiens [24] = species: Homo sapiens; test: Binding affinity to ALP (unknown origin) by fluorescence analysis
Mus musculus [25] = test: Antialzheimer activity in APP/PS1 transgenic AD mouse model assessed as increase in ACh level administered intravenously once every 2 days for 10 times and measured on day 30 by ELISA; format: functional, organism-based; settings: route iv, time 30.0 day
[26] = Toxicity in APP/PS1 transgenic AD mouse model assessed as spleen damage administered intravenously once every 2 days for 10 times and measured on day 30 by H and E staining based analysis; format: tissue-based; settings: in vivo, iv, 720 h, time 30 day
Cholinesterase [27] = target: T1, Cholinesterase; test: Binding affinity to BChE (unknown origin) in PBS assessed as red-shift in maximum absorption to 680 nm by UV/vis absorption analysis
[28] = target: Cholinesterase (Mus musculus) (UniProt Q03311); test: Binding affinity to BChE in mouse HT-22 cells at 10 uM incubated for 1 hrs by fluorescence based confocal laser scanning microscopic analysis; format: cell-based
SH-SY5Y [29] = test: Neuroprotective activity against amyloid-beta (1 to 42)-induced human SH-SY5Y cells assessed as increase in ACh level in cell lysate at 10 to 20 uM incubated for 24 hrs by ELISA; format: functional, cell-based; settings: dose 10-20 µM
[30] = Stability of compound in male ICR mouse brain at 100 uM, iv measured after 24 hrs by fluorescence microplate reader; format: ADME, organism-based
Homo sapiens [31] = species: Homo sapiens; test: Binding affinity to carboxylesterase (unknown origin) by fluorescence analysis
Cholinesterase [32] = target: T1, Cholinesterase; test: Binding affinity to BChE (unknown origin) in PBS assessed as maximum emission wavelength at 710 nm by fluorescence spectra analysis
[33] = Permeability of compound incubated for 18 hrs by PAMPA-BBB based UV plate spectroscopic reader analysis; format: ADME; settings: read-out: permeability
Cholinesterase [34] = target: T1, Cholinesterase; test: Inhibition of human BChE using butyrylthiocholineiodide as substrate preincubated for 5 mins followed by substrate addition and measured immediately by Ellmans method
Mus musculus [35] = test: Antialzheimer activity in APP/PS1 transgenic AD mouse model assessed as improvement in learning administered intravenously once every 2 days for 10 times followed by morris water maze training from day 21 to 25 and measured on day 26 by Morris water maze test; format: functional, organism-based; settings: route iv, time 26.0 day
Cholinesterase [36] = target: T1, Cholinesterase; test: Binding affinity to BChE (unknown origin) in PBS assessed as Michaelis-menten constant by fluorometric method
[37] = Drug uptake in brain of 8 months old AD-mouse model assessed as increase in fluorescence at 100 uM, iv preadministered with tacrine for 4 hrs followed by compound administration by fluorescence scanning analysis; format: ADME, organism-based; settings: in vivo
SH-SY5Y [38] = test: Neuroprotective activity against amyloid-beta (1 to 42)-induced human SH-SY5Y cells assessed as decrease in amyloid beta (1 to 42) level in cell lysate at 10 to 20 uM incubated for 24 hrs by ELISA; format: functional, cell-based; settings: dose 10-20 µM

T1 sequence (P06276 whole entry): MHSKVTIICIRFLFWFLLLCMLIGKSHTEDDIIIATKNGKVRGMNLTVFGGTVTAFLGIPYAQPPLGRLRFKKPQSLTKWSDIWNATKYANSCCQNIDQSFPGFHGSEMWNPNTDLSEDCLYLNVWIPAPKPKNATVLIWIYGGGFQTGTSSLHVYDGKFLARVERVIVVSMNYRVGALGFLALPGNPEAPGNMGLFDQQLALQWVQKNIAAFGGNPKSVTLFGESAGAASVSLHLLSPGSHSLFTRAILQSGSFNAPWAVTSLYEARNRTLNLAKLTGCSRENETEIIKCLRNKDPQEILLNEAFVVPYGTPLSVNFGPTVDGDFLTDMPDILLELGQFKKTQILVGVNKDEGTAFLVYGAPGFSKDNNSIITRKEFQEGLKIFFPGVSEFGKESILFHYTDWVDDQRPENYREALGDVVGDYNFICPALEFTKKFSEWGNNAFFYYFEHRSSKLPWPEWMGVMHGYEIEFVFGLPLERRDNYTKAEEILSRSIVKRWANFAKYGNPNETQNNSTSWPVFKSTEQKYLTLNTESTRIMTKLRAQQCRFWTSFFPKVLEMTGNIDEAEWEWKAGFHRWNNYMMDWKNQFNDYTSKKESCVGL
Chain of Acetylcholinesterase (P22303 whole entry): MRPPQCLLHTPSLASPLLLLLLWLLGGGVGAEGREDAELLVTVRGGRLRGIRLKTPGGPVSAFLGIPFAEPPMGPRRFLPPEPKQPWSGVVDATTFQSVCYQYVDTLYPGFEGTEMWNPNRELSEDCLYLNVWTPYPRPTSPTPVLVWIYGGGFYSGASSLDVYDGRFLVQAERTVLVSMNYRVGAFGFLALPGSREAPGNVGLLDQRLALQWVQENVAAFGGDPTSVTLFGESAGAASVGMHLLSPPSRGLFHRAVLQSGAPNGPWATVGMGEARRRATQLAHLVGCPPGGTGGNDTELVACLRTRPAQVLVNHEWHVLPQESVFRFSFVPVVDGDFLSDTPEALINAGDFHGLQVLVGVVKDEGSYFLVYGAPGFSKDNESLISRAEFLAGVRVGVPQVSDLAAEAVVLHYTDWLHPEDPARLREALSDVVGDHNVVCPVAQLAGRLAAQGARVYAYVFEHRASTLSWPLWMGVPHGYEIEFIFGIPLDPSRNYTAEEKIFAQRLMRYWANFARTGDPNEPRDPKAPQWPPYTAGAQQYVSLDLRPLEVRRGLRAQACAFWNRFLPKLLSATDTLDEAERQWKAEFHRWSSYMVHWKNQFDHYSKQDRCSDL
Chain of Cholinesterase (Mus musculus) (Q03311 whole entry): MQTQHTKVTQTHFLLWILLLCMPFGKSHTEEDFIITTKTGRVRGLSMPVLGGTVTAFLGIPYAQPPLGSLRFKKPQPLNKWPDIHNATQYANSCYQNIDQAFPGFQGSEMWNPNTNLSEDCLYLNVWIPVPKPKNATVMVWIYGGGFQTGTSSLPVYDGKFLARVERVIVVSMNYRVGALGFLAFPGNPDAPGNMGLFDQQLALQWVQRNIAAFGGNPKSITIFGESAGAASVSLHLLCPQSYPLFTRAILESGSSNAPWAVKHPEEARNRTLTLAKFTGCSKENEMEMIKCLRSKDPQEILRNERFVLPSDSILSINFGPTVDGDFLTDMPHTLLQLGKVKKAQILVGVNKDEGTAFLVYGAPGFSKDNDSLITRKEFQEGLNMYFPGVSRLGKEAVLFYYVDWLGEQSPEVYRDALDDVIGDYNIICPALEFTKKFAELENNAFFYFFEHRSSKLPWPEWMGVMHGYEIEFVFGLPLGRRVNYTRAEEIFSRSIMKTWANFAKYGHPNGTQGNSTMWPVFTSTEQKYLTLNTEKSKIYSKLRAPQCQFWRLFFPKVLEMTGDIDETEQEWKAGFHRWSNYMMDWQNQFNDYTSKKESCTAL

CCN(CC)Cc1ccccc1CNC(=O)c1cccc(NC(=O)c2cccc(C(=O)NCCn3cc(CCC[N+]4=C(/C=C/C5=C6Oc7cc(OC(=O)C8CC8)ccc7C=C6CCC5)C(C)(C)c5ccccc54)nn3)c2)c1.[I-]
Activity (Cholinesterase [1]): 3.02 µM/min | Activity (Acetylcholinesterase): inactive | Drug uptake [2]: Active | Activity (Cholinesterase [3]): Active | fold change (FC) (Cholinesterase [4]): 24 | Activity (SH-SY5Y [5]): Active | Activity (Cholinesterase [6]): 50% | Activity [7]: Non-Toxic | Activity (SH-SY5Y [8]): Active | Activity (PC-12 [9]): Active | Activity (PC-12 [10]): Active | Drug uptake [11]: Active | Activity (Mus musculus [12]): Active | Stability [13]: Stable | Activity (PC-12 [14]): inactive | Drug uptake [15]: Not Active | Activity (Homo sapiens [16]): inactive | Activity [17]: Non-Toxic | Activity (Cholinesterase [18]): Active | Activity (Cholinesterase [19]): Active | Activity (Mus musculus [20]): inactive | Drug uptake [21]: Active | Stability [22]: Stable | Selectivity ratio [23]: 22.8 | Activity (Homo sapiens [24]): inactive | Activity (Mus musculus [25]): Active | Activity [26]: Non-Toxic | Activity (Cholinesterase [27]): Active | Activity [28]: Active | Activity (SH-SY5Y [29]): Active | Stability [30]: Unstable | Activity (Homo sapiens [31]): inactive | Activity (Cholinesterase [32]): Active | Papp at 18 h [33]: 15.5 ×10⁻⁶ cm/s | IC50 (Cholinesterase [34]): 29.7 nM | Activity (Mus musculus [35]): Active | Activity (Cholinesterase [36]): 12.9 µM | Drug uptake [37]: Not Active | Activity (SH-SY5Y [38]): Active
